According to patent US12459930B2, “Compounds for the inhibition of unregulated cell growth” (GODAVARI BIOREFINERIES LIMITED, priority 2018, dated 2025):

Tests used:
[1] = test system: PC3 prostate cancer cell line; test: In vitro antiproliferative assay (MTT assay), PC3; format: cell-based; conditions: 48 h, 48 hrs drug incubation, read-out: IC50 in micromolar, PC3 (MTT assay)
Description: (§1) MTT assay is a simple and sensitive assay where, metabolic reducing activity of the cells is measured. The increase of this activity in time is taken as a parameter of cell growth. If treatment with a drug impairs this increase, the action is a consequence of growth inhibition, cell killing or both. […] All cell lines were cultured in a 37° C. incubator with a 5% CO2 environment. Compounds were dissolved in DMSO with a concentration of 0.1M (stock solution). Cells were seeded into 96-well plates at suitable plating efficiency.
(§2) Following plating efficiencies were standardized for MTT assay:
(§3) In the MTT procedure, the cells were plated in 96 well plates as per predetermined plating efficiency (Table1). The plates were then incubated for 24 hrs in 5% CO2 atmosphere at 37° C. Appropriate concentrations of the drugs were then added to the plate and further incubation was carried out for 48 hrs (in 5% CO2 atmosphere at 37° C.). The assay plate was then centrifuged twice at 3000 rpm for 3 mins and supernatant was then discarded. 100 ul of MTT solution (0.5 mg/ml) was then added to each well of the plate and it was further incubated for 4 hrs (in 5% CO2 atmosphere at 37° C.) Following 4 hr incubation, the plate was then centrifuged twice, and supernatant was aspirated off very carefully. 200 ul of DMSO was then added to each well to solubilize. MTT crystals and mixed well by shaking the plate. XY graph of log percent viability was then plotted against log drug concentration.

[2] = test system: PC3 spheres (cancer stem cells); test: In vitro sphere-forming assay (cancer stem cells), PC3 in Prostosphere media; conditions: for 3D sphere count of PC3 in Prostosphere media: 2000 cells/well, n = 6 ± S.D; for viability at 0.0025 µM: read-out: % Viability of spheres (PC3), 0.0025 uM; for viability at 0.0025 µM / viability at 0.025 µM / viability at 0.25 µM / viability at 2.5 µM / viability at 25 µM: GCD = 100% viability; for viability at 0.025 µM: read-out: % Viability of spheres (PC3), 0.025 uM; for viability at 0.25 µM: read-out: % Viability of spheres (PC3), 0.25 uM; for viability at 2.5 µM: read-out: % Viability of spheres (PC3), 2.5 uM; for viability at 25 µM: read-out: % Viability of spheres (PC3), 25 uM
[3] = test system: MDAMB231 breast cancer cell line; test: Soft agar colony-formation assay, MDAMB231; format: cell-based; conditions: Homo sapiens, MDA-MB-231, 168 h, 1 week, Alamar Blue, read-out: IC50 in micromolar, MDAMB231 (Soft Agar Assay)
Description: (§4) The Soft Agar Colony-formation Assay is an anchorage-independent growth assay in soft agar, which is one of the most stringent assays for detecting malignant transformation of cells. For this assay, malignant cells are cultured with appropriate controls in soft agar medium for 1-2 weeks. Following this incubation period, formed colonies can either be analyzed morphologically using cell stain and quantifying the number of colonies formed.
(§5) Briefly, for Soft Agar Assay a mixture of 50 ul of 2× medium (taken appropriately as per cell line) and 50 ul of 1.2% Bacto Agar were plated on to each well of 96 well micro titer assay plate. 10 ul of cells (of specific plating efficiency pre standardized for respective cell line) were mixed with 20 ul of 2× medium and 30 ul of 0.8% of Bacto Agar and 1.6 ul of drug (of appropriate concentration) in a vial and transferred to the solidified pre layers of the assay plates. The cells were then allowed to grow and form colonies at 37° C. and 5% C02 for 1 week. An intermittent feeding with 50 ul of appropriate 2× medium was performed after 3 days of experimental set up. 16 ul of Alamar Blue (1.5 mg/ml) was then added to all the wells to quantify the developed colonies. The plates were incubated for 24 hrs at 37° C. Absorbance was then measured at 630 nm. XY graph of log Percent viability was then plotted against log drug concentration.
(§6) Following plating efficiencies were standardized for Soft Agar Assay: […]

[4] = test system: MDAMB231 spheres (cancer stem cells); test: In vitro sphere-forming assay (cancer stem cells), MDAMB231 in Mammosphere media; conditions: for 3D sphere count of MDAMB231 in Mammosphere media: 2000 cells/well, n = 6 ± S.D; for viability at 0.0025 µM / viability at 0.025 µM / viability at 0.25 µM / viability at 2.5 µM / viability at 25 µM: Homo sapiens, MDA-MB-231, read-out: % Viability of spheres (MDAMB231)
Description: In Vitro Sphere-forming Assay: Sphere assay measures the ability of cancer stem cells (CSCs) to form spheres in specially designed serum-free medium.
Mammosphere Media Preparation (For 100 mL): 1 g methyl cellulose autoclaved with magnetic stirrer, 100 ml plain media (MEBM) was added and dissolved under magnetic stirring. After complete dissolution FGF—80 μL, EGF—40 μL, Penstrep—1 mL, Heparin—400 μL was added.
Procedure—The cells were trypsinised and made into single-cell suspension by passing through cell strainers (100 μl and 40 μl, respectively), The cells were diluted at a concentration of 2000 cells/100 μL and suspended in either Mammosphere (for breast cell lines) or Prostosphere (for prostate cell lines). 100 μL of this suspension was added into each well of 96-well suspension plates and incubated at 37 C, 50 CO2 for 24 hrs. Appropriate concentrations of the drugs (2 L) were added into respective wells with 100 μL of stem cell culture medium. Plates were incubated at 37° C., 50% CO2 for 72 hrs. After incubation, 2.5 μL of the respective drug concentration and 50 μL of stem cell culture medium were added into each well and the plates were further incubated at 37° C., 500 CO2 for 72 hrs. 3 μL of the respective drug concentration was added with 50 μL of stem cell culture medium again after incubation and plates were reincubated for 72 hrs at 37° C., 500 CO2. Number of primary spheres formed for each concentration were counted. The spheres were converted to 0 viability of spheres compared to untreated (Growth Control with DMSO, GCD).

[5] = test system: PC3 prostate cancer cell line; test: Soft agar colony-formation assay, PC3; format: cell-based; conditions: 168 h, 1 week, Alamar Blue, read-out: IC50 in micromolar, PC3 (Soft Agar Assay)
Description: as §4, §5, §6

[6] = test system: MDAMB231 breast cancer cell line; test: In vitro antiproliferative assay (MTT assay), MDAMB231; format: cell-based; conditions: Homo sapiens, MDA-MB-231, 48 h, 48 hrs drug incubation, read-out: IC50 in micromolar, MDAMB231 (MTT assay)
Description: as §1, §2, §3

[7] = test system: DU145 prostate cancer cell line; test: In vitro antiproliferative assay (MTT assay), DU145; format: cell-based; conditions: Homo sapiens, DU-145, 48 h, 48 hrs drug incubation, read-out: IC50 in micromolar, DU145 (MTT assay)
Description: as §1, §2, §3

Compound	IC50 [1]	3D sphere count of PC3 in Prostosphere media ([2]; 0.0025 uM)	3D sphere count of PC3 in Prostosphere media ([2]; 0.025 uM)	3D sphere count of PC3 in Prostosphere media ([2]; 0.25 uM)	3D sphere count of PC3 in Prostosphere media ([2]; 2.5 uM)	3D sphere count of PC3 in Prostosphere media ([2]; 25 uM)	viability at 0.0025 µM [2]	viability at 0.025 µM [2]	viability at 0.25 µM [2]	viability at 2.5 µM [2]	viability at 25 µM [2]	IC50 [3]	3D sphere count of MDAMB231 in Mammosphere media ([4]; 0.0025 uM)	3D sphere count of MDAMB231 in Mammosphere media ([4]; 0.025 uM)	3D sphere count of MDAMB231 in Mammosphere media ([4]; 0.25 uM)	3D sphere count of MDAMB231 in Mammosphere media ([4]; 2.5 uM)	3D sphere count of MDAMB231 in Mammosphere media ([4]; 25 uM)	viability at 0.0025 µM [4]	viability at 0.025 µM [4]	viability at 0.25 µM [4]	also measured
O=C1OCc2c1c(-c1ccc3c(c1)OCO3)c1cc3c(cc1c2OCCN1CCOCC1)OCO3 [Formula XI, 4-(2-morpholinoethoxy)-9-(benzo[d][1,3]dioxol-5-yl)-6,7-methylenedioxynaphtho[2,3-c]furan-1(3H)-one]	12.6 µM	51(±3)	43(±3)	32(±4)	21(±3)	0(±0)	62%	52%	39%	25%	0%	2.7 µM	51(±3)	41(±3)	31(±3)	20(±3)	0(±0)	64%	52%	39%	viability at 2.5 µM [4]: 25%; viability at 25 µM [4]: 0%; IC50 [5]: 5.12 µM; IC50 [6]: 3.2 µM; IC50 [7]: 8.18 µM
COc1cccc(-c2ccc(OCCN3CCOCC3)c3ccccc23)c1 [Formula XII, 4-(2-(1-(3-methoxyphenyl)naphthalen-4-yloxy)ethyl)morpholine]	3.98 µM	50(±3)	42(±3)	36(±3)	28(±3)	9(±3)	61%	51%	44%	34%	11%	3.33 µM	47(±4)	41(±3)	34(±3)	30(±3)	9(±3)	59%	52%	43%	viability at 2.5 µM [4]: 38%; viability at 25 µM [4]: 11%; IC50 [5]: 4.07 µM; IC50 [6]: 2.7 µM; IC50 [7]: 2.59 µM
O=C1OCc2c1c(-c1ccc3c(c1)OCO3)c1cc3c(cc1c2OCCCCN1CCOCC1)OCO3 [Formula XIII, 4-(4-morpholinobutoxy)-9-(benzo[d][1,3]dioxol-5-yl)-6,7-methylenedioxynaphtho[2,3-c]furan-1(3H)-one]	8.83 µM	49(±3)	44(±4)	35(±3)	32(±3)	27(±3)	62%	55%	44%	40%	34%	3.03 µM	49(±3)	40(±3)	36(±2)	30(±4)	21(±3)	62%	50%	45%	viability at 2.5 µM [4]: 38%; viability at 25 µM [4]: 26%; IC50 [5]: 3.84 µM; IC50 [6]: 7.29 µM; IC50 [7]: 8.85 µM
c1ccc2c(-c3ccc4c(c3)OCO4)ccc(OCCCCNC3CCCCC3)c2c1 [Formula XIV, N-(4-(1-(benzo[d][1,3]dioxol-5-yl)naphthalen-4-yloxy)butyl)cyclohexan amine]	0.346 µM	56(±3)	44(±5)	39(±5)	24(±3)	13(±3)	64%	51%	45%	28%	15%	2.8 µM	47(±3)	43(±3)	21(±7)	21(±3)	7(±3)	57%	52%	26%	viability at 2.5 µM [4]: 26%; viability at 25 µM [4]: 9%; IC50 [5]: 0.4 µM; IC50 [6]: 0.308 µM; IC50 [7]: 0.532 µM
CN1CCN(CCCCOc2ccc(-c3ccc4c(c3)OCO4)c3c2CCCC3)CC1 [Formula XIX, 1-(4-(5-(benzo[d][1,3]dioxol-5-yl)-1,2,3,4-tetrahydronaphthalen-8-yloxy)butyl)-4-methylpiperazine]	3.71 µM	51(±3)	40(±3)	35(±3)	25(±3)	13(±2)	62%	48%	42%	30%	15%	3.41 µM	48(±4)	40(±4)	34(±3)	23(±5)	13(±2)	61%	50%	43%	viability at 2.5 µM [4]: 29%; viability at 25 µM [4]: 16%; IC50 [5]: 5.12 µM; IC50 [6]: 2.14 µM; IC50 [7]: 2.04 µM
c1cc2c(cc1-c1ccc(OCCCCCCNC3CCCCC3)c3c1CCCC3)OCO2 [Formula XVIII, N-(6-(5-(benzo[d][1,3]dioxol-5-yl)-1,2,3,4-tetrahydronaphthalen-8-yloxy)hexyl) cyclohexanamine]	0.32 µM	50(±4)	43(±5)	39(±3)	27(±4)	19(±3)	63%	54%	49%	34%	24%	4.18 µM	54(±3)	49(±4)	39(±2)	28(±3)	19(±1)	65%	58%	45%	viability at 2.5 µM [4]: 34%; viability at 25 µM [4]: 24%; IC50 [5]: 2.63 µM; IC50 [6]: 0.398 µM; IC50 [7]: 0.348 µM
